Reference: patent US6881719B2, “β-turn peptidomimetic cyclic compounds” (McGill University, priority 2000, dated 2005)

Tests used:
[1] = system: embryonic rat DRG primary neuronal cultures; assay: Cell survival (MTT), primary DRG cultures; assay type: cell-based; conditions: 8 days;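 as to % Protection: 100% equals survival with optimal NGF at 1 nM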
Description: (§1) Fetal rat DRG primary cultures were established from Sprague Dawley day 17 rat embryos. All ganglia were dissected and dissociated first enzymatically with trypsin and then mechanically. Dissociated cells were cultured (10^5 cells/well) in 96 well plates pre-coated with collagen, and grown for a total of 8 days in Neuro Basal Medium containing N2 supplement (GIBCO, Toronto), antibiotics, and L-glutamine. These DRG cultures are ˜85% TrkA-expressing and are heavily dependent on TrkA signals for survival.
Primary DRG cultures: After a total of 8 days of culture with the indicated test or control ligands, cell survival were studied using the 3(4,5-Dimethylthiazolyl-2)-2,5-diphenyl tetrazolium bromide colorimetric (MTT) assay, and by microscopic observation.
(§2) Cell lines: 5,000 cells/well in protein-free media (PFHM-II, GIBCO, Toronto) containing 0.2% bovine serum albumin (BSA) (Crystalline fraction V, Sigma, St. Louis, Mo.) were seeded in 96 well plates (Falcon, Mississauga, Ontario). The cultures were untreated, or treated with the indicated test or control ligands. Cell viability was quantitated using the MTT assay after 56-72 hours of culture. […] The OD of untreated cells were subtracted. The higher optical density of untreated primary cultures is likely due to cellular heterogeneity and to endogenous production of limiting amounts of growth factors.

[2] = target: T1, cell surface TrkA (4-3.6 cells, p75+ TrkA+) (Homo sapiens, UniProt P04629); assay: FACScan binding of D3-biotin to 4-3.6 cells
T1 construct: expressed in transfected cells
T1 sequence (P04629 33-796): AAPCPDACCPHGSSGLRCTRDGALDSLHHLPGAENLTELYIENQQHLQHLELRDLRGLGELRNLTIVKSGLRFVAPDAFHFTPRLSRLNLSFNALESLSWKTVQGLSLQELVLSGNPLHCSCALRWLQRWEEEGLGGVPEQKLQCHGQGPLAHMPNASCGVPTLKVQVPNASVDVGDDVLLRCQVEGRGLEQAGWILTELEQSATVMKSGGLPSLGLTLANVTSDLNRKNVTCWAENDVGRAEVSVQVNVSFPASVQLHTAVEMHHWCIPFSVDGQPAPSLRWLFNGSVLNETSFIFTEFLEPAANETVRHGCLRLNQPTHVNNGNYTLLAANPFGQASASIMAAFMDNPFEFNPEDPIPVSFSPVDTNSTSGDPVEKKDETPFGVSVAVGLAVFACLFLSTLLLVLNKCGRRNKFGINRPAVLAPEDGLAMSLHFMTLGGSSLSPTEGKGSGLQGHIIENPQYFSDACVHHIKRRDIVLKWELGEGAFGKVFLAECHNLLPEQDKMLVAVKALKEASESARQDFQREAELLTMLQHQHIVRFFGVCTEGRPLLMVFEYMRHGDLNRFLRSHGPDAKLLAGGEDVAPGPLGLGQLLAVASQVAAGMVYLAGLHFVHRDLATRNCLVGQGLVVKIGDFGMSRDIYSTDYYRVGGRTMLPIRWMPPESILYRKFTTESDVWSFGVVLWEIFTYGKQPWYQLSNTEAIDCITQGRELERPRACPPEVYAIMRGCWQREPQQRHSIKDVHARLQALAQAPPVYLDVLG
Description: (§3) The 4-3.6 cells are B104 cells stably transfected with human trkA cDNA, and express equal levels of p75 and TrkA (TrkA+ p75+). For screening agents that activate or antagonize TrkC receptors, NIH3T3 fibroblasts were stably transfected with human TrkC cDNA. These cells respond to the ligand NT-3. For screening agents that activate or antagonize TrkA receptors, NIH3T3 fibroblasts were stably transfected with human TrkA cDNA. These cells respond to the ligand NGF.
(§4) FACScan binding assays: 4-3.6 cells (2×10^5) in FACScan binding buffer (PBS, 0.5% BSA, and 0.1% NaN3) were immunostained as described (Saragovi et al., 1998). Saturating anti-TrkA mAb 5C3, or anti-p75 mAb MC192, or control non-binding IgGs were added to cells for 1 hour at 4° C., in the presence or absence of D3 as competitor. Excess primary antibody was washed off, and cells were immunostained with fluorescinated goat-anti-mouse IgG secondary antibody. Cells were acquired on a FACScan and mean channel fluorescence of bell-shaped histograms were analyzed using the LYSIS II program.
FACScan analysis featuring the secondary fluorescent agent avidin-FITC was used to detect binding of D3-biotin to the cell surface (Table 1). The 4-3.6 cells (p75+TrkA+) had fluorescence approximately 4 times greater for D3-biotin than for a background control peptide-biotin.

[3] = target: T2, TrkA-ECD (Homo sapiens, UniProt P04629); assay: ELISA and RIA binding assays of NGF•TrkA-ECD
T2 construct: pure soluble TrkA extracellular domain (TrkA-ECD) produced in baculovirus; made in house
T2 sequence (P04629 33-423 limits assumed): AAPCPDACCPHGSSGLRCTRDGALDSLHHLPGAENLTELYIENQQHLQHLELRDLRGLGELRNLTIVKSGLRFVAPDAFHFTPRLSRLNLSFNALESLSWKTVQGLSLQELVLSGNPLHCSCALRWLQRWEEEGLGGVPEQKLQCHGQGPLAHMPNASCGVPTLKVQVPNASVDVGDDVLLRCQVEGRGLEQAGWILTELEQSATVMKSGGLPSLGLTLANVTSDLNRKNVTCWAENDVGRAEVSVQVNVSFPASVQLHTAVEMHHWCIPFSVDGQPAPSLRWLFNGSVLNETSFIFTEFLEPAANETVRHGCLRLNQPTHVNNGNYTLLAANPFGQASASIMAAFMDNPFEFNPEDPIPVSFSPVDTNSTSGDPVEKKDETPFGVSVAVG

[4] = physchem; conditions: water
[5] = target: T3, p75 NGF receptor subunit (Rattus norvegicus, UniProt P07174); assay: FACScan competition of anti-p75 mAb MC192 binding on 4-3.6 cells; conditions: mAb 1 nM; competitor 40 μM
T3 construct: B104 rat neuroblastomas express p75 receptors; endogenous in cells
T3 sequence (P07174 30-425): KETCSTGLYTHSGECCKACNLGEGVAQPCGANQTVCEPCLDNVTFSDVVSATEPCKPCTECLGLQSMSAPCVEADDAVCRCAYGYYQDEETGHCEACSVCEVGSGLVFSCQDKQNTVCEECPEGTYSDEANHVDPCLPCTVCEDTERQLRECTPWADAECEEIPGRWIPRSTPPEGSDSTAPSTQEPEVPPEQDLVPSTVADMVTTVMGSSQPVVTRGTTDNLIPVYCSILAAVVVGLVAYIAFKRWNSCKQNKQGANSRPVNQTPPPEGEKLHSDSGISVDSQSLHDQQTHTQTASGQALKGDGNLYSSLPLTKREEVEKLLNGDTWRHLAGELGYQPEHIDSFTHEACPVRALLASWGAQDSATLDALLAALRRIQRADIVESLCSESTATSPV
Description: as §3, §4

[6] = target: T4, TrkA•TrkA homodimers (4-3.6 cells) (Homo sapiens, UniProt P04629); assay: Detection of putative TrkA•TrkA homodimers by cross-linking and western blot; assay type: cell-based
T4 construct: expressed in transfected cells
T4 sequence (P04629 33-796): as the sequence (P04629 33-796) above
Description: In FIG. 2, 4-3.6 cells were exposed to TrkA ligands as per Table 5 (lanes 1-4) or no ligand (lanes 5 and 6), and chemically cross-linked (lanes 1-5) or not cross-linked (lane 6). Cell lysates were western blotted with anti-TrkA 203 antisera.
Live 4-3.6 cells suspended in PBS were treated with the indicated ligand(s) for 40 min at 4° C. to allow binding. Cells were then washed in PBS, cross-linked with the membrane impermeable cross-linker disuccinimidyl suberate (DSS, Pierce; 1 mM DSS, 15 minutes at 15° C.). Unreacted DSS was quenched with 5 mM ammonium acetate. Then cells were either lysed directly in SDS sample buffer (whole cell lysate), or lysed in non-ionic detergent NP-40 and immunoprecipitated with anti-Trk or anti-p75 antibodies as described (LeSauteur et al., 1996). […] For western blot analysis, equal amounts of protein or cell equivalents for each sample were resolved in a 5-10% SDS-PAGE gradient, transferred to nitrocellulose membranes (Xymotech Biosystems, Montréal, Qc), and blotted with anti-Trk polyclonal antibody 203 that recognizes the intracellular domain of Trk. Blots were visualized using the enhanced chemiluminescence (ECL) system (New England Nuclear, Boston, Mass.).

[7] = system: wild type NIH3T3 fibroblasts; assay: Cell survival (MTT), NIH wt; assay type: cell-based; conditions: 72 hours
Description: as §3, §2

[8] = system: B104 cells; assay: Cell survival control, B104 cells; assay type: cell-based, rat
Description: as §3, §2

[9] = system: TrkB-expressing HEK293 cells; assay: Cell survival control, TrkB-expressing HEK293 cells; assay type: cell-based
Description: as §2

[10] = system: B104 cells (p75+ TrkA-); assay: FACScan binding of D3-biotin to B104 cells; design: species or system rat; conditions: D3-biotin 20 μM + D3 200 μM as competitor
[11] = Enhancement of trophic effect of EGF; assay type: cell-based
[12] = system: DRG neuronal cultures; assay: Morphometric analysis of DRG dissociated neurons (neurite outgrowth); assay type: cell-based, rat; conditions: 8 days
Description: In FIG. 1 primary neuronal DRG cultures were treated as indicated for 8 days, and cell differentiation was studied morphometrically. Magnification 60×. Pictures representative of 3 independent experiments.
as §1
The effect of D3 on TrkA-mediated cellular differentiation was assessed using two independent assays: morphometric analysis of DRG dissociated neurons and induction of ChAT activity in septal neuronal cultures.

[13] = target: TrkA (Homo sapiens, UniProt P04629); assay: Inhibition of agonistic activity of mAb 5C3; assay type: cell-based
Sequence of TrkA (P04629 33-796): as above

[14] = target: T5, NIH3T3 fibroblasts expressing TrkC (Homo sapiens, UniProt Q16288); assay: Cell survival (MTT), NIH-TrkC; assay type: cell-based; conditions: for NIH-TrkC % Protection: 72 hours
T5 construct: expressed in transfected cells; host or cells: NIH3T3 fibroblasts
T5 sequence (Q16288 32-839): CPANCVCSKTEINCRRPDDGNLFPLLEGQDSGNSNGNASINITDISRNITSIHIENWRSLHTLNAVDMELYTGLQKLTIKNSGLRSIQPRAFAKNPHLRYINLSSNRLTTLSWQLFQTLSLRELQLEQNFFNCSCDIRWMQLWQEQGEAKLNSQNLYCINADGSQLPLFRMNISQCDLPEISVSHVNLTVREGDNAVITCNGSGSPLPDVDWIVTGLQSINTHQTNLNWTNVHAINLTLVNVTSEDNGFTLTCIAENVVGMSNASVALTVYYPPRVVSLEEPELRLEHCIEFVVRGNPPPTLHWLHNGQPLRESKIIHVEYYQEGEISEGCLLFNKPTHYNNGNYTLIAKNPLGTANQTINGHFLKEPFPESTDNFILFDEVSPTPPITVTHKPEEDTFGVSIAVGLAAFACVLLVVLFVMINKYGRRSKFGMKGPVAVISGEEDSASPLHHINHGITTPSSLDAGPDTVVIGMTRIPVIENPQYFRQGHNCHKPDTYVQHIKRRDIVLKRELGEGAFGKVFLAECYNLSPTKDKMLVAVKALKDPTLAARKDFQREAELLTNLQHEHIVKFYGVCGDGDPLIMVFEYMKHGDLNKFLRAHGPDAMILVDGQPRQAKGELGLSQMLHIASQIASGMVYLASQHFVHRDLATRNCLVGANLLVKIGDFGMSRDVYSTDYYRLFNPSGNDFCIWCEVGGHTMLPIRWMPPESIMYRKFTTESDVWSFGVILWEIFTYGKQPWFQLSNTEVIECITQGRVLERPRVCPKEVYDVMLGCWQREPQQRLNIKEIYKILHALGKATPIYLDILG
Description: as §3, §2

## NCCCC[C@@H]1NC(=O)[C@H](CCC(=O)O)NC(=O)c2cc([N+](=O)[O-])ccc2OCCC(C(=O)NCC(=O)O)NC1=O (stereo partly drawn) [D3, EKHse-G-OH]
[1]; compound 10 μM + NGF 20 pM
  % Protection: 48 ± 3%
  Optical Density: 471 ± 28
[1]; compound 10 μM + NGF 500 pM
  % Protection: 84 ± 3%
  Optical Density: 603 ± 26
[1]; compound 10 μM + NGF 1 nM
  % Protection: 120 ± 7%
  Optical Density: 977 ± 38
[1]; compound 10 μM alone
  % Protection: 38 ± 2%
  Optical Density: 405 ± 22
[2]; 10-fold molar excess of D3
  competition of D3-biotin binding: abolished binding of D3-biotin
[2]; D3-biotin 20 μM + D3 200 μM as competitor
  MCF (mean channel fluorescence): 17 ± 7
[3]
  blocking of NGF•TrkA-ECD interactions: did not substantially block
[4]
  solubility: ≥ 5000 µg/mL
[5]
  % Maximal binding of mAb MC192: 101 ± 2%
[6]; 10 pM NGF + 10 μM D3
  intensity of the Mr 300 kDa band (TrkA dimers), standardized to 1 nM NGF (100%): 77±7%
[6]; 10 μM D3 alone
  intensity of the Mr 300 kDa band (TrkA dimers), standardized to 1 nM NGF (100%): 21±4%
[7]; agent 10 μM + 10 pM NGF
  NIH wt % Protection: 0 ± 3%
[7]; agent 10 μM alone
  NIH wt % Protection: −3 ± 5%
[8]
  protection from apoptosis: neither D3 nor NGF protected
[9]
  protection from apoptosis: neither D3 nor NGF protected
[10]
  MCF (mean channel fluorescence): 11 ± 2
[11]
  enhancement of the trophic effect of EGF: did not enhance
[12]; D3 alone
  neurite outgrowth: undergo neurite outgrowth in response to D3
[12]; D3 with NGF
  potentiation of NGF effect on neurite outgrowth: potentiates the effect of NGF
[13]
  inhibition of optimal agonistic activity of mAb 5C3: inhibited by D3 in a dose-dependent manner
[14]; NIH3T3 cells stably transfected with trkC cDNA
  enhancement of NT-3 protection: did not enhance NT-3 protection
[14]; agent 10 μM + 10 pM NGF
  NIH-TrkC % Protection: 6 ± 2%
[14]; agent 10 μM alone
  NIH-TrkC % Protection: 3 ± 3%
